Data as given in patent US9539252B2, “Piperazine-substituted benzothiophene derivatives as antipsychotic agents” (OTSUKA PHARMACEUTICAL CO., LTD., priority 2011, dated 2017).

Test: Solubility in oil (sesame oil, benzyl benzoate), visual observation
Settings: benzyl benzoate, oil or lipid, thermodynamic from solid

solubility, > 100 mg/mL:
CCCCC(C)C(=O)OCN1C(=O)CCc2ccc(OCCCCN3CCN(c4cccc5sccc45)CC3)cc21 (stereo not shown) [Example 78, 2-methylhexanoic acid 7-[4-(4-benzo[b]thiophen-4-ylpiperazin-1-yl)butoxy]-2-oxo-3,4-dihydro-2H-quinolin-1-ylmethyl ester]
CCCCCCCCCCCCCCCCOC(=O)OCN1C(=O)CCc2ccc(OCCCCN3CCN(c4cccc5sccc45)CC3)cc21 [Example 144, carbonic acid 7-[4-(4-benzo[b]thiophen-4-ylpiperazin-1-yl)butoxy]-2-oxo-3,4-dihydro-2H-quinolin-1-ylmethyl ester hexadecyl ester]
CCCCCCCCCCCCCCCCCC(=O)OCN1C(=O)CCc2ccc(OCCCCN3CCN(c4cccc5sccc45)CC3)cc21 [Example 48, octadecanoic acid 7-[4-(4-benzo[b]thiophen-4-ylpiperazin-1-yl)butoxy]-2-oxo-3,4-dihydro-2H-quinolin-1-ylmethyl ester]
CCCCNC(=O)OCn1c(=O)ccc2ccc(OCCCCN3CCN(c4cccc5sccc45)CC3)cc21 [Example 35, N-butylcarbamic acid 7-[4-(4-benzo[b]thiophen-4-ylpiperazin-1-yl)butoxy]-2-oxo-2H-quinolin-1-ylmethyl ester]
CCOC(=O)CCNC(=O)OCn1c(=O)ccc2ccc(OCCCCN3CCN(c4cccc5sccc45)CC3)cc21 [Example 99, 3-{7-[4-(4-benzo[b]thiophen-4-ylpiperazin-1-yl)butoxy]-2-oxo-2H-quinolin-1-ylmethoxycarbonylamino}-propionic acid ethyl ester]
CCCCCCCCCCCCCCCCCCCC(=O)OCN1C(=O)CCc2ccc(OCCCCN3CCN(c4cccc5sccc45)CC3)cc21 [Example 31, icosanoic acid 7-[4-(4-benzo[b]thiophen-4-ylpiperazin-1-yl)butoxy]-2-oxo-3,4-dihydro-2H-quinolin-1-ylmethyl ester]
O=C(OCn1c(=O)ccc2ccc(OCCCCN3CCN(c4cccc5sccc45)CC3)cc21)N1CCOCC1 [Example 67, morpholine-4-carboxylic acid 7-[4-(4-benzo[b]thiophen-4-ylpiperazin-1-yl)butoxy]-2-oxo-2H-quinolin-1-ylmethyl ester]
CCCCCC(=O)OCN1C(=O)CCc2ccc(OCCCCN3CCN(c4cccc5sccc45)CC3)cc21 [Example 70, hexanoic acid 7-[4-(4-benzo[b]thiophen-4-ylpiperazin-1-yl)butoxy]-2-oxo-3,4-dihydro-2H-quinolin-1-ylmethyl ester]
CCC(C)C(=O)OCN1C(=O)CCc2ccc(OCCCCN3CCN(c4cccc5sccc45)CC3)cc21 (stereo not shown) [Example 77, 2-methylbutyric acid 7-[4-(4-benzo[b]thiophen-4-ylpiperazin-1-yl)butoxy]-2-oxo-3,4-dihydro-2H-quinolin-1-ylmethyl ester]
CCCCCCCCCCOC(=O)OCn1c(=O)ccc2ccc(OCCCCN3CCN(c4cccc5sccc45)CC3)cc21 [Example 135, carbonic acid 7-[4-(4-benzo[b]thiophen-4-ylpiperazin-1-yl)butoxy]-2-oxo-2H-quinolin-1-ylmethyl ester decyl ester]
CCCCCCCCCCNC(=O)OCN1C(=O)CCc2ccc(OCCCCN3CCN(c4cccc5sccc45)CC3)cc21 [Example 17, N-decylcarbamic acid 7-[4-(4-benzo[b]thiophen-4-ylpiperazin-1-yl)butoxy]-2-oxo-3,4-dihydro-2H-quinolin-1-ylmethyl ester]
CCCCOCCOCC(=O)OCN1C(=O)CCc2ccc(OCCCCN3CCN(c4cccc5sccc45)CC3)cc21 [Example 100, (2-butoxyethoxy)acetic acid 7-[4-(4-benzo[b]thiophen-4-ylpiperazin-1-yl)butoxy]-2-oxo-3,4-dihydro-2H-quinolin-1-ylmethyl ester]
CCCCCCCCCCCCCCCC(=O)OCn1c(=O)ccc2ccc(OCCCCN3CCN(c4cccc5sccc45)CC3)cc21 [Example 42, hexadecanoic acid 7-[4-(4-benzo[b]thiophen-4-ylpiperazin-1-yl)butoxy]-2-oxo-2H-quinolin-1-ylmethyl ester]
O=C(OCn1c(=O)ccc2ccc(OCCCCN3CCN(c4cccc5sccc45)CC3)cc21)N1CCSCC1 [Example 153, thiomorpholine-4-carboxylic acid 7-[4-(4-benzo[b]thiophen-4-ylpiperazin-1-yl)butoxy]-2-oxo-2H-quinolin-1-ylmethyl ester]
CCCCCCCCCCCC(=O)OCn1c(=O)ccc2ccc(OCCCCN3CCN(c4cccc5sccc45)CC3)cc21 [Example 22, dodecanoic acid 7-[4-(4-benzo[b]thiophen-4-ylpiperazin-1-yl)butoxy]-2-oxo-2H-quinolin-1-ylmethyl ester]
CCCCOC(=O)OCn1c(=O)ccc2ccc(OCCCCN3CCN(c4cccc5sccc45)CC3)cc21 [Example 168, carbonic acid 7-[4-(4-benzo[b]thiophen-4-ylpiperazin-1-yl)butoxy]-2-oxo-2H-quinolin-1-ylmethyl ester butyl ester]
O=C(NCC1CCCCC1)OCN1C(=O)CCc2ccc(OCCCCN3CCN(c4cccc5sccc45)CC3)cc21 [Example 29, N-cyclohexylmethylcarbamic acid 7-[4-(4-benzo[b]thiophen-4-ylpiperazin-1-yl)butoxy]-2-oxo-3,4-dihydro-2H-quinolin-1-ylmethyl ester]
O=C(OCN1C(=O)CCc2ccc(OCCCCN3CCN(c4cccc5sccc45)CC3)cc21)OC1CCCCC1 [Example 150, carbonic acid 7-[4-(4-benzo[b]thiophen-4-ylpiperazin-1-yl)butoxy]-2-oxo-3,4-dihydro-2H-quinolin-1-ylmethyl ester cyclohexyl ester]
O=C(NCc1ccccc1)OCn1c(=O)ccc2ccc(OCCCCN3CCN(c4cccc5sccc45)CC3)cc21 [Example 62, N-benzylcarbamic acid 7-[4-(4-benzo[b]thiophen-4-ylpiperazin-1-yl)butoxy]-2-oxo-2H-quinolin-1-ylmethyl ester]
CNC(=O)OCN1C(=O)CCc2ccc(OCCCCN3CCN(c4cccc5sccc45)CC3)cc21 [Example 46, N-methylcarbamic acid 7-[4-(4-benzo[b]thiophen-4-ylpiperazin-1-yl)butoxy]-2-oxo-3,4-dihydro-2H-quinolin-1-ylmethyl ester]
CCCCCCCCOC(=O)OCN1C(=O)CCc2ccc(OCCCCN3CCN(c4cccc5sccc45)CC3)cc21 [Example 149, carbonic acid 7-[4-(4-benzo[b]thiophen-4-ylpiperazin-1-yl)butoxy]-2-oxo-3,4-dihydro-2H-quinolin-1-ylmethyl ester octyl ester]
CCCCC(C)C(=O)OCn1c(=O)ccc2ccc(OCCCCN3CCN(c4cccc5sccc45)CC3)cc21 (stereo not shown) [Example 88, 2-methylhexanoic acid 7-[4-(4-benzo[b]thiophen-4-ylpiperazin-1-yl)butoxy]-2-oxo-2H-quinolin-1-ylmethyl ester]
O=C(OCn1c(=O)ccc2ccc(OCCCCN3CCN(c4cccc5sccc45)CC3)cc21)c1ccccc1 [Example 12, benzoic acid 7-[4-(4-benzo[o]thiophen-4-ylpiperazin-1-yl)butoxy]-2-oxo-2H-quinolin-1-ylmethyl ester]
COC(=O)CNC(=O)OCn1c(=O)ccc2ccc(OCCCCN3CCN(c4cccc5sccc45)CC3)cc21 [Example 64, {7-[4-(4-benzo[b]thiophen-4-ylpiperazin-1-yl)butoxy]-2-oxo-2H-quinolin-1-ylmethoxycarbonylamino}acetic acid methyl ester]
CCCCCCCCCCCCCCCCCCN(C)C(=O)OCn1c(=O)ccc2ccc(OCCCCN3CCN(c4cccc5sccc45)CC3)cc21 [Example 44, N-methyl-N-octadecylcarbamic acid 7-[4-(4-benzo[b]thiophen-4-ylpiperazin-1-yl)butoxy]-2-oxo-2H-quinolin-1-ylmethyl ester]
COC(=O)CN(C)C(=O)OCN1C(=O)CCc2ccc(OCCCCN3CCN(c4cccc5sccc45)CC3)cc21 [Example 90, ({7-[4-(4-benzo[b]thiophen-4-ylpiperazin-1-yl)butoxy]-2-oxo-3,4-dihydro-2H-quinolin-1-ylmethoxycarbonyl}methylamino)acetic acid methyl ester]
O=C(NC1CCCCC1)OCN1C(=O)CCc2ccc(OCCCCN3CCN(c4cccc5sccc45)CC3)cc21 [Example 83, N-cyclohexylcarbamic acid 7-[4-(4-benzo[b]thiophen-4-ylpiperazin-1-yl)butoxy]-2-oxo-3,4-dihydro-2H-quinolin-1-ylmethyl ester]
COC(=O)CCCNC(=O)OCn1c(=O)ccc2ccc(OCCCCN3CCN(c4cccc5sccc45)CC3)cc21 [Example 101, 4-{7-[4-(4-benzo[b]thiophen-4-ylpiperazin-1-yl)butoxy]-2-oxo-2H-quinolin-1-ylmethoxycarbonylamino}butyric acid methyl ester]
O=C(OC/C=C/c1ccccc1)OCn1c(=O)ccc2ccc(OCCCCN3CCN(c4cccc5sccc45)CC3)cc21 [Example 140, carbonic acid 7-[4-(4-benzo[b]thiophen-4-ylpiperazin-1-yl)butoxy]-2-oxo-2H-quinolin-1-ylmethyl ester (E)-3-phenyl-allyl ester]
COCCNC(=O)OCN1C(=O)CCc2ccc(OCCCCN3CCN(c4cccc5sccc45)CC3)cc21 [Example 97, N-(2-methoxyethyl)carbamic acid 7-[4-(4-benzo[b]thiophen-4-ylpiperazin-1-yl)butoxy]-2-oxo-3,4-dihydro-2H-quinolin-1-ylmethyl ester]
CCCOC(=O)OCn1c(=O)ccc2ccc(OCCCCN3CCN(c4cccc5sccc45)CC3)cc21 [Example 165, carbonic acid 7-[4-(4-benzo[b]thiophen-4-ylpiperazin-1-yl)butoxy]-2-oxo-2H-quinolin-1-ylmethyl ester propyl ester]

Same assay, conditions: sesame oil, oil or lipid, thermodynamic from solid

solubility, > 100 mg/mL:
CCCCCCCCCCCCCCCCOC(=O)OCN1C(=O)CCc2ccc(OCCCCN3CCN(c4cccc5sccc45)CC3)cc21 [Example 144, carbonic acid 7-[4-(4-benzo[b]thiophen-4-ylpiperazin-1-yl)butoxy]-2-oxo-3,4-dihydro-2H-quinolin-1-ylmethyl ester hexadecyl ester]
CCCCCCCCCCOC(=O)OCn1c(=O)ccc2ccc(OCCCCN3CCN(c4cccc5sccc45)CC3)cc21 [Example 135, carbonic acid 7-[4-(4-benzo[b]thiophen-4-ylpiperazin-1-yl)butoxy]-2-oxo-2H-quinolin-1-ylmethyl ester decyl ester]
CCCCCCCCCCNC(=O)OCN1C(=O)CCc2ccc(OCCCCN3CCN(c4cccc5sccc45)CC3)cc21 [Example 17, N-decylcarbamic acid 7-[4-(4-benzo[b]thiophen-4-ylpiperazin-1-yl)butoxy]-2-oxo-3,4-dihydro-2H-quinolin-1-ylmethyl ester]
O=C(OCN1C(=O)CCc2ccc(OCCCCN3CCN(c4cccc5sccc45)CC3)cc21)OC1CCCCC1 [Example 150, carbonic acid 7-[4-(4-benzo[b]thiophen-4-ylpiperazin-1-yl)butoxy]-2-oxo-3,4-dihydro-2H-quinolin-1-ylmethyl ester cyclohexyl ester]
CCCCCCCCOC(=O)OCN1C(=O)CCc2ccc(OCCCCN3CCN(c4cccc5sccc45)CC3)cc21 [Example 149, carbonic acid 7-[4-(4-benzo[b]thiophen-4-ylpiperazin-1-yl)butoxy]-2-oxo-3,4-dihydro-2H-quinolin-1-ylmethyl ester octyl ester]
CCCCCCCCCCCCCCCCCCN(C)C(=O)OCn1c(=O)ccc2ccc(OCCCCN3CCN(c4cccc5sccc45)CC3)cc21 [Example 44, N-methyl-N-octadecylcarbamic acid 7-[4-(4-benzo[b]thiophen-4-ylpiperazin-1-yl)butoxy]-2-oxo-2H-quinolin-1-ylmethyl ester]
